Patent publication EP2724723A1, “Tegaserod for use in the treatment of nerve injuries” (Universitätsklinikum Hamburg-Eppendorf, priority 2012, dated 2014)

What was measured:
[1] = tested on: motoneurons isolated from NCAM^-/- mice; experiment: In vitro neurite outgrowth of NCAM-deficient motoneurons; assay type: cell-based; details: tegaserod 100 nM; colominic acid 3 µM; PSA mimicking peptide 30 µM; Figure 2B
Experimental: (§1) Primary cultures of cerebellar neurons or Schwann cells were prepared from cerebellum or dorsal root ganglia of 7-day-old C57BL/6J mice as described in Mehanna et al. (2009), Brain, 132 (Pt 6): 1449-62 and Loers et al. (2005), J. Neurochem., 92(6): 1463-76. Motoneurons were prepared from E14 C57BL/6J mice as described in Simova et al. (2006), Ann. Neurol., 60(4): 430-437. In brief, 48-well plates were coated with 0.01% poly-L-lysine (PLL) or poly-L-ornithine (PLO) overnight at 4°C, washed twice with water and air-dried. Directly before use, plates were washed twice with PBS, and Schwann cells, cerebellar neurons (PLL) or motoneurons (PLO) were seeded at a density of 1.25 x 10^4 (Schwann cells and motoneurons) or 2.5 x 10^4 cells (cerebellar neurons) per well in 250 µl of corresponding serum-free culture medium. Soluble organic compounds were added to the culture 1 h after seeding in increasing concentrations. […] Morphological quantification of neurite or process lengths was performed as described in Mehanna et al. (2009), see above. Schwann cell processes and neurites of cerebellar neurons with a length of at least one cell body diameter were counted and total neurite or process length per cell was determined by counting 50 cells in each of two wells per experiment. […]

[2] = tested on: PSA specific monoclonal antibody 735; experiment: Surface plasmon resonance competition experiment (BIAcore 3000); assay type: binding; details: compared to antibody not mixed with tegaserod; antibody 10 nM pre-incubated with 1-30 µM compound; Figure 1B
Experimental: The running buffer was phosphate-buffered saline (PBS, pH 7.4). PSA mimicking peptide coupled to catalase was covalently immobilized to CM5 sensor chips (carboxymethyl dextran; GE Healthcare Europe GmbH) via primary amino groups, using standard coupling protocols (Karlsson et al. (1991); J. Immunol. Methods 145 (1-2): 229-240. In brief, the sensor surface was activated by a 7-min pulse of 0.2 M N-ethyl-N-(3-dimethylaminopropyl) carbodiimide and 50 mM N-hydroxysuccinimide. The PSA peptide solution (10 nM in 10 mM sodium acetate, pH 5.2) was then injected for 5-10 min. Ethanolamine (1 M, pH 8.5) was used to block remaining activated carboxyl groups. Ligand densities of 100-150 fmol/mm^2 were reached. Immobilized control peptide (10 nM PSA scrambled peptide coupled to catalase) was used as a reference surface. […] The data were analyzed using the BIAevaluation 3.0 software. All sensorgrams were corrected for background and bulk refractive index by subtraction of the reference.
To confirm that tegaserod binds specifically to antibody 735, a competition experiment was performed. First, the PSA specific monoclonal antibody 735 (10 nM) was pre-incubated for 1 h at room temperature with different molar concentrations (1, 2, 5, 8, 15 and 30 µM) of tegaserod or control compound. Then the antibody/organic compound solutions were injected ([…]) to the PSA peptide-coupled chip. […]

[3] = tested on: 2 mm femoral nerve defect; experiment: Femoral nerve regeneration: locomotor recovery (FBA, PLR, recovery index); assay type: in vivo, C57BL/6J mice; details: for average FBA (foot base angle): end of the 15-week study, control group 93 degrees
Text: Briefly, mice were anesthetized and the femoral nerve of the left rear leg exposed. The nerve was bis-sected 3 mm proximal to the branching of the saphenous and motor branches, and the nerve ends were sutured 0.5 mm into a 3 mm polyethylene conduits with 0.58 mm inner diameter (Becton Dickinson), leaving an overall gap length of 2 mm.
The FBA measures the angle between the hind paw and a beam as the mouse is pushing and bearing weight with the foot of the injured limb.
FBA is governed largely by the quadriceps muscle, the major muscular innervation target of the femoral nerve. Mice were trained to walk on a beam for 2 weeks prior to surgery and single frame video motion analysis (Simi Reality Motion Systems, Simi Sportsplayer) was used to quantify the angle between the beam and the foot when the toes from the left leg are fully extended.
As a complement to assessment of the FBA that measures a weight-bearing reflexive movement, the protraction limb ratio (PLR) is indicative of voluntary movement of the hind limb. […] Mice are suspended by the tail above a pencil and allowed to grasp the pencil. The PLR is measured by dividing the relative length that the uninjured hind leg extends to the pencil by the length that the injured hind limb extends.
To account for any variability between animals, an index is calculated that takes into account the initial FBA and PLR of animals prior to surgery. The recovery index is calculated by the equation: RI= (Xday y-Xday 1wk)/(Xday 0-Xday 7) x 100, where Xday0 is the measurement before injury, Xday 1wk is the measurement one week after injury, and Xday y is the measurement at the study endpoint. An RI value 100 indicates complete recovery of function.

[4] = tested on: cerebellar granule neurons (cGNs); experiment: In vitro neurite outgrowth of cerebellar granule neurons; assay type: cell-based, C57BL/6J mice; details: compared to control; Figure 2C, D
Experimental: Primary cultures of cerebellar neurons or Schwann cells were prepared from cerebellum or dorsal root ganglia of 7-day-old C57BL/6J mice as described in Mehanna et al. (2009), Brain, 132 (Pt 6): 1449-62 and Loers et al. (2005), J. Neurochem., 92(6): 1463-76. Motoneurons were prepared from E14 C57BL/6J mice as described in Simova et al. (2006), Ann. Neurol., 60(4): 430-437. In brief, 48-well plates were coated with 0.01% poly-L-lysine (PLL) or poly-L-ornithine (PLO) overnight at 4°C, washed twice with water and air-dried. Directly before use, plates were washed twice with PBS, and Schwann cells, cerebellar neurons (PLL) or motoneurons (PLO) were seeded at a density of 1.25 x 10^4 (Schwann cells and motoneurons) or 2.5 x 10^4 cells (cerebellar neurons) per well in 250 µl of corresponding serum-free culture medium. Soluble organic compounds were added to the culture 1 h after seeding in increasing concentrations. After maintenance for 24 h at 37°C, cells were fixed with 2.5% glutaraldehyde and stained with 1% methylene blue/toluidine blue in 1% borax. Morphological quantification of neurite or process lengths was performed as described in Mehanna et al. (2009), see above. Schwann cell processes and neurites of cerebellar neurons with a length of at least one cell body diameter were counted and total neurite or process length per cell was determined by counting 50 cells in each of two wells per experiment. At least three independent experiments were performed for each culture. Also, the activity of tegaserod with the PSA peptide mimic and the bacterial PSA analogue, colominic acid, on neurite and process extension experiments was compared.

anti-PSA antibody 735 = experiment: Competition ELISA: antibody 735 binding to immobilized PSA mimicking peptide
Experimental: To confirm that the compounds identified in the screening from Example 1 are indeed PSA mimetics, binding of tegaserod maleate ((E)-but-2-enedioic acid; 1-[[(Z)-(5-methoxyindol-3-ylidene) methyl]amino]-2-pentylguanidine; hereafter termed tegaserod) and the control compound nitrendipine (5-O-ethyl 3-O-methyl-2,6-dimethyl-4-(3-nitrophenyl)-1,4-dihydropyridine-3,5-dicarboxylate) to the PSA antibody 735 was analyzed by competition ELISA. 384-well flat bottom microtiter plates (Corning Life Sciences) were coated in triplicates with 25 µl of PSA mimicking peptide coupled to catalase (3 µg/ml) or PBS alone at 4°C overnight. All following steps were carried out at room temperature. After blocking with 1% BSA in PBS for 1 h, the wells were washed three times for 5 min with PBS containing 0.05% Tween-20 (PBST). Wells were incubated with increasing concentrations of tegaserod and nitrendipine, pre-incubated with anti-PSA antibody 735 (0.1 µg/ml) for 1 h. […] The reaction was stopped by addition of 50 µl 2.5 M H2SO4 and quantified using an ELISA reader (µQuant, Bio-TEK, Winooski, VT, USA) at 490 nm and the software KCjunior (Bio-TEK).

Schwann cells = experiment: In vitro process outgrowth of Schwann cells; assay type: cell-based, C57BL/6J mice; details: compared to control; Figure 2C, D
Experimental: as §1

## [H]/N=C(/NCCCCC)N/N=C/c1c[nH]c2ccc(OC)cc12 [tegaserod, (E)-but-2-enedioic acid; 1-[[(Z)-(5-methoxyindol-3-ylidene)methyl]amino]-2-pentylguanidine]
[1]
  effect on neurite extension of NCAM^-/- motoneurons (in words): no enhancement in neurite extension
[2]
  disruption of the capability of mAb 735 to bind to the PSA peptide mimic bound to the chip surface: 80%
[3]; 250 nM in hydrogel conduit
  time after nerve injury at which sustained improvement of the FBA first became apparent: 6 weeks
  time at which FBA improvement became statistically significant from the vehicle control group: 10 weeks
  average FBA (foot base angle): 82 degrees
[3]; 250 nM, 15 weeks, vehicle control 37%
  average recovery index (RI) for the FBA: 62%
[3]; 250 nM, vehicle control 8 weeks
  time to return to pre-surgery PLR (protraction limb ratio): ≤ 6 weeks
[3]; 2,500 nM
  PLR versus other groups (in words): remained consistently higher than the other two groups
[3]; 2,500 nM in hydrogel conduit
  FBA recovery versus vehicle control (in words): did not show statistically significant difference from vehicle control
  average FBA (foot base angle): 87 degrees
[3]; 2,500 nM, 15 weeks, vehicle control 37%, considerable variation
  recovery index (RI) for the FBA: 51%
[3]; 2,500 nM, a single mouse did not recover
  RI of the PLR reached by the majority of mice: 100%
[4]
  effect on neurite outgrowth of cGNs (in words): significantly enhance neurite/process outgrowth compared to control
anti-PSA antibody 735; competition ELISA, Figure 1A
  concentration of maximal inhibition of binding of mAb 735 with the PSA peptide mimic: approximately 100 nM
anti-PSA antibody 735; increasing concentrations, pre-incubated with antibody 735 (0.1 µg/ml) for 1 h
  inhibition of binding of mAb 735 with the PSA peptide mimic (in words): inhibit binding of mAb 735 with the PSA peptide mimic in a dose dependent manner
Schwann cells
  effect on process outgrowth of Schwann cells (in words): significantly enhance neurite/process outgrowth compared to control
